Measured values published in ChEMBL document CHEMBL1146379, “Solid phase synthesis and SAR of small molecule agonists for the GPR40 receptor” (Bioorg Med Chem Lett, 2007).

What was measured:
[1] = Protein binding in rat plasma by ultrafiltration assay; assay type: ADME, cell-free; details: read-out: PB
[2] = Clearance in rat; assay type: ADME, organism-based; details: in vivo
Cytochrome P450 2D6 = Cytochrome P450 2D6 (Homo sapiens, UniProt P10635); assay: Inhibition of CYP2D6; assay type: ADME
Cytochrome P450 3A4 = Cytochrome P450 3A4 (Homo sapiens, UniProt P08684); assay: Inhibition of CYP3A4; assay type: ADME
Cytochrome P450 3A4, sequence (P08684 whole entry): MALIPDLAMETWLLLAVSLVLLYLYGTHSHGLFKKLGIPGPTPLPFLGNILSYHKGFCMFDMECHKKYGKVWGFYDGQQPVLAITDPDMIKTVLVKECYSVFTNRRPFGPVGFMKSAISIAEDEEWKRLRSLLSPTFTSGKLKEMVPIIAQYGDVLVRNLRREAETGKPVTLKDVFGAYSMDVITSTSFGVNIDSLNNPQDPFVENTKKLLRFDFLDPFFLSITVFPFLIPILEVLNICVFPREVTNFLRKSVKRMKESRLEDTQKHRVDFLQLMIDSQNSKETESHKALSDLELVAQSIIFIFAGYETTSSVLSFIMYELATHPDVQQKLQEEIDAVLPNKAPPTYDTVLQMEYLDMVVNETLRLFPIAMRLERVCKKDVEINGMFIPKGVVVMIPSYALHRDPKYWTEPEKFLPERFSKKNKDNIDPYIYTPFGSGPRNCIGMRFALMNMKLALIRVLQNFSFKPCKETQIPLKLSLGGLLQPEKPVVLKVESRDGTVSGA

[3] = target: Hydroxycarboxylic acid receptor 2 (Homo sapiens, UniProt Q8TDS4); assay: Activity at HM74A receptor
Hydroxycarboxylic acid receptor 2, sequence (Q8TDS4 whole entry): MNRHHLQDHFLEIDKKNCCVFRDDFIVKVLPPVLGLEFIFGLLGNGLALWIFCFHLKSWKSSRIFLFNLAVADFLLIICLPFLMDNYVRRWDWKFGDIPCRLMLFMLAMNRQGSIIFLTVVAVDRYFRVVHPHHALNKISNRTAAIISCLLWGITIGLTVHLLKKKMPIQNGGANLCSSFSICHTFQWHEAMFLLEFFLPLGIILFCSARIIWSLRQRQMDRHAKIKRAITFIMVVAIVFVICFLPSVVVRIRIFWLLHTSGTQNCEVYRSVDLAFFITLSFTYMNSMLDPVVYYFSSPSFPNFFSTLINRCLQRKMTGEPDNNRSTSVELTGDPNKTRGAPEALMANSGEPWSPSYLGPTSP

Homo sapiens = organism: Homo sapiens; assay: Selectivity for GPR40 over GPR41
[4] = Half life in iv dosed rat; assay type: ADME, organism-based; details: in vivo
[5] = Volume of distribution at steady state in rat; assay type: ADME, organism-based; details: in vivo, read-out: Vdss
[6] = target: Sphingosine 1-phosphate receptor 1 (Homo sapiens, UniProt P21453); assay: Activity at S1P1 receptor
Sphingosine 1-phosphate receptor 1, sequence (P21453 whole entry): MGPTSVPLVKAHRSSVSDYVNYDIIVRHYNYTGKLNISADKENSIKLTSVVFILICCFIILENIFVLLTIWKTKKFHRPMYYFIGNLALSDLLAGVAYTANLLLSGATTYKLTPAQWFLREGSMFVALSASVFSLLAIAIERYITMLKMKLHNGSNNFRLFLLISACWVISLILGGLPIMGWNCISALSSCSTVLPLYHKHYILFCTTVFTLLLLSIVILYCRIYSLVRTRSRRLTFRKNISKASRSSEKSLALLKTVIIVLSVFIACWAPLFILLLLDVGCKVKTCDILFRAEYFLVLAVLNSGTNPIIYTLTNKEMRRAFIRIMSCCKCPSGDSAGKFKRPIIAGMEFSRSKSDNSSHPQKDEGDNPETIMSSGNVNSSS

[7] = Half life in po dosed rat; assay type: ADME, organism-based; details: in vivo
Cytochrome P450 1A2 = target: T1, Cytochrome P450 1A2 (Homo sapiens, UniProt P05177); assay: Inhibition of CYP1A2; assay type: ADME
T1 sequence (P05177 whole entry): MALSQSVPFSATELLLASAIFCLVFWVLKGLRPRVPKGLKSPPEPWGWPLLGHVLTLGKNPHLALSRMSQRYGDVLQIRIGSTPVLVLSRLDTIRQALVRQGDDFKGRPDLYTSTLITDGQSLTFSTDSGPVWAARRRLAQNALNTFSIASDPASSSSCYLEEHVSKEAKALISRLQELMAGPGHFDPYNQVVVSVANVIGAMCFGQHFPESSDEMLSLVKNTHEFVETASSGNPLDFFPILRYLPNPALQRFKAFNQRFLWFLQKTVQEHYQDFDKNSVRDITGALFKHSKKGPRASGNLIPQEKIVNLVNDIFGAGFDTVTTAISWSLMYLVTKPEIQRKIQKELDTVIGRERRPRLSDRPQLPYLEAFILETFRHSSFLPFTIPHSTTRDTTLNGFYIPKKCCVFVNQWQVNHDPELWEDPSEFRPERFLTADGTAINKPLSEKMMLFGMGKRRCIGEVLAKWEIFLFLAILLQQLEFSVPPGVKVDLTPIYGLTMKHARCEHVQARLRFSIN

[8] = Permeability in MDCK cells expressing low Pgp; assay type: ADME, cell-based, Canis lupus familiaris; details: dog, MDCK type I; read-out: permeability
[9] = target: T2, Peroxisome proliferator-activated receptor delta (Homo sapiens, UniProt Q03181); assay: Activity at PPARdelta receptor
T2 sequence (Q03181 whole entry): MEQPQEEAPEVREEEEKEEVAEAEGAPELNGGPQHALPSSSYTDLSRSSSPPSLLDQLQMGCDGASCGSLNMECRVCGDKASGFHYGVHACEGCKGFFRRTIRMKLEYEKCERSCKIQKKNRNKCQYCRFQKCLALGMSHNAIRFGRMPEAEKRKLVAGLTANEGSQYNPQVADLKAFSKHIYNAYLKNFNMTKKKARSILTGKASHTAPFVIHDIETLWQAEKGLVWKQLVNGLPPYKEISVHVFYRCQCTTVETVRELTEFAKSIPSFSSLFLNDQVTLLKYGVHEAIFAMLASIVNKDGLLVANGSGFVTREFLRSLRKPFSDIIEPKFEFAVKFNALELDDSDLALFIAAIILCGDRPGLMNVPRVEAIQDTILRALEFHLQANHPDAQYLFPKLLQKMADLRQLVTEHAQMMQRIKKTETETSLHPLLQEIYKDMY

Cytochrome P450 2C9 = Cytochrome P450 2C9 (Homo sapiens, UniProt P11712); assay: Inhibition of CYP2C9; assay type: ADME
Cytochrome P450 2C9, sequence (P11712 whole entry): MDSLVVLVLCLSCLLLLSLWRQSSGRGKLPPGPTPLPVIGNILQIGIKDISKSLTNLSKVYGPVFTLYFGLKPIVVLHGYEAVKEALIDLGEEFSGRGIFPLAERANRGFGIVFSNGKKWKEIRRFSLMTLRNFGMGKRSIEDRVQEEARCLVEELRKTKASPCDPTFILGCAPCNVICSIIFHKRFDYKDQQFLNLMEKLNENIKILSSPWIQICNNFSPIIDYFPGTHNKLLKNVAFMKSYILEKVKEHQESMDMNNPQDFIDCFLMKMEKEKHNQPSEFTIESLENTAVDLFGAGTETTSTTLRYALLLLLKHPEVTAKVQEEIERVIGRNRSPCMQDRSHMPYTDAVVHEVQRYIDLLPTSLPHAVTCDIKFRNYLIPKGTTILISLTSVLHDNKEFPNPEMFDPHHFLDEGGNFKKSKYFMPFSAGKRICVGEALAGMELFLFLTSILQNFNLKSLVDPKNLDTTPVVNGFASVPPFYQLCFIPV

[10] = target: T3, Peroxisome proliferator-activated receptor gamma (Homo sapiens, UniProt P37231); assay: Activity at PPARgamma receptor
T3 sequence (P37231 whole entry): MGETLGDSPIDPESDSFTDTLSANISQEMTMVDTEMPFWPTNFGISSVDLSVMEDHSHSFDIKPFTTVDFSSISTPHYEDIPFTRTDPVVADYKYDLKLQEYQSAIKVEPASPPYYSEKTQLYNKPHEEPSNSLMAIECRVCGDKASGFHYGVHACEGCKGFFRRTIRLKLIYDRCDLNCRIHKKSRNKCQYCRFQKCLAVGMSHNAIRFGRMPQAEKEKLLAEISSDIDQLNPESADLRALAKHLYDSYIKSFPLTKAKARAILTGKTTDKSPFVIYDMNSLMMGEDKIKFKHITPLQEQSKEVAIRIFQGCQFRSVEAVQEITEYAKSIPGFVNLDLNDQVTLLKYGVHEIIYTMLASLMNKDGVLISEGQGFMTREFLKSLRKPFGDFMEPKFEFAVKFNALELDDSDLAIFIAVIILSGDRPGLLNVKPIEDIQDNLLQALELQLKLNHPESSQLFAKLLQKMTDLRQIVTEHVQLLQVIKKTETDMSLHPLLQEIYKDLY

[11] = target: Free fatty acid receptor 1 (Homo sapiens, UniProt O14842); assay: Agonist activity at GPR40 receptor; assay type: functional
Free fatty acid receptor 1, sequence (O14842 whole entry): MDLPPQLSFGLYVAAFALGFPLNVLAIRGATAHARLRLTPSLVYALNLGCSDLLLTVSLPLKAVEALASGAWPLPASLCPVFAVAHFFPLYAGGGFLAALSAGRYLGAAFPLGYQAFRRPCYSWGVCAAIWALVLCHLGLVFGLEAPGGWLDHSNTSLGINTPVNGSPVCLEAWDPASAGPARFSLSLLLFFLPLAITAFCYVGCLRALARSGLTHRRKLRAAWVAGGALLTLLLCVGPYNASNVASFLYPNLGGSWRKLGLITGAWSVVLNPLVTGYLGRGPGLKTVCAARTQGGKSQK

[12] = target: T4, Free fatty acid receptor 2 (Homo sapiens, UniProt O15552); assay: Activity at GPR43 receptor
T4 sequence (O15552 whole entry): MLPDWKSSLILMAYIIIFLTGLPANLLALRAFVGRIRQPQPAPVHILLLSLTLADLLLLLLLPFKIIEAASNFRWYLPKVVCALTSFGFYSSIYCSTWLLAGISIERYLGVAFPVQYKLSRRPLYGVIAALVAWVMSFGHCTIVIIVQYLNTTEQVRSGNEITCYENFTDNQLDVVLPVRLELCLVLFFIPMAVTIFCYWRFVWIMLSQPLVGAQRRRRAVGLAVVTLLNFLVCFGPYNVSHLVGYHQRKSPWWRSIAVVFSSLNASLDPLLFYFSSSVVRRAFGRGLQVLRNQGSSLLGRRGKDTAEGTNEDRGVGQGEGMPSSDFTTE

[13] = target: Prostaglandin E2 receptor EP4 subtype (Homo sapiens, UniProt P35408); assay: Activity at EP4 receptor
Prostaglandin E2 receptor EP4 subtype, sequence (P35408 whole entry): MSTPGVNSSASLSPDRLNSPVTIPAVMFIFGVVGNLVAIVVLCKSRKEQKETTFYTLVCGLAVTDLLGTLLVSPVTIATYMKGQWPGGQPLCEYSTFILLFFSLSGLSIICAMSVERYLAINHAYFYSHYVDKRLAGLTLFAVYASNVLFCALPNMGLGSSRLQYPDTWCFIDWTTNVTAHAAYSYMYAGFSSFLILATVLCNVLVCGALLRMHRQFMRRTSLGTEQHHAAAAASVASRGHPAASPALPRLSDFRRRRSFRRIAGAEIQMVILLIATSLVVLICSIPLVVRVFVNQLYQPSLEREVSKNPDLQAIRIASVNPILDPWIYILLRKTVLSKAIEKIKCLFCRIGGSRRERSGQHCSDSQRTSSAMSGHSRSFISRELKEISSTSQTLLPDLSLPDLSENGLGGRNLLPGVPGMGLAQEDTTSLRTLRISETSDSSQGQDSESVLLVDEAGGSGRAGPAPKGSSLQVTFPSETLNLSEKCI

[14] = target: T5, Prostaglandin E2 receptor EP3 subtype (Homo sapiens, UniProt P43115); assay: Activity at EP3 receptor
T5 sequence (P43115 whole entry): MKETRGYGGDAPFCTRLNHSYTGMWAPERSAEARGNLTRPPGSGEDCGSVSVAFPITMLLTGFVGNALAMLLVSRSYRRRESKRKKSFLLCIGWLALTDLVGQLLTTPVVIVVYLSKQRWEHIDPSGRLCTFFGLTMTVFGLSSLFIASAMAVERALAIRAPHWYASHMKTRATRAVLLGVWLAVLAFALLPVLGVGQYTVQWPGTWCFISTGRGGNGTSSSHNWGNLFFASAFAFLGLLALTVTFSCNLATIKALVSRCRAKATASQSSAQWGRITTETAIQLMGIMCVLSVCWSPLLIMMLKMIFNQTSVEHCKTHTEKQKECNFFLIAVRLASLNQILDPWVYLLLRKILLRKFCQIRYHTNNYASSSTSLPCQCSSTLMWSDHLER

Cytochrome P450 2D6, sequence (P10635 whole entry): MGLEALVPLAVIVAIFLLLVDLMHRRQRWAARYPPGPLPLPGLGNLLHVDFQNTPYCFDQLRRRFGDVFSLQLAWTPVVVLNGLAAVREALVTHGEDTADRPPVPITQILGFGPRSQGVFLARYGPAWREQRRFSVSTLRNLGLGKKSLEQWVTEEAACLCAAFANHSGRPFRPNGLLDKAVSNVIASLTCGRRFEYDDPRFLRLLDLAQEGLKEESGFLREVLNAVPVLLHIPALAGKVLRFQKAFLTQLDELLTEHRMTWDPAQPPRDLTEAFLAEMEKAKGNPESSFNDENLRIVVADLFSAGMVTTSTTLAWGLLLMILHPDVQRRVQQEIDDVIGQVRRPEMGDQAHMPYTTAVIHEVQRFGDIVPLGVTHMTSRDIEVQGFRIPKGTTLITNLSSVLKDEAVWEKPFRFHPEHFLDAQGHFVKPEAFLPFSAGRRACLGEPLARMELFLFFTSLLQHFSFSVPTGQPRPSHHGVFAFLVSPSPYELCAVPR

- fraction unbound [1]: < 0.004
- clearance [2]: 24.9 mL/min/kg
- IC50 (Cytochrome P450 2D6): > 33 µM
- IC50 (Cytochrome P450 3A4): > 33 µM
- EC50 [3]: > 6.31 µM
- Fold change (Homo sapiens): 500
- half-life [4]: 5.3 h
- Vd [5]: 4.7 L/kg
- EC50 [6]: > 31.6 µM
- half-life [7]: 5.9 h
- IC50 (Cytochrome P450 1A2): > 33 µM
- Papp [8]: 59.9 ×10⁻⁶ cm/s
- Ki [9]: > 3.16 µM
- IC50 (Cytochrome P450 2C9): > 33 µM
- Ki [10]: > 3.16 µM
- EC50 [11]: 0.0794 µM
- EC50 [12]: > 50.1 µM
- Ki [13]: > 3.16 µM
- Ki [14]: 0.398 µM
SMILES: O=C(O)CCc1ccc(NCc2cccc(Oc3ccccc3)c2)cc1 [GW9508]
